# Measurements reported in patent US8062651B1, “Attractant pheromone for the male pink hibiscus mealybug, Maconellicoccus hirsutus (Green) (Homoptera: Pseudococcidae)” (The United States of America as represented by the …, priority 2004, dated 2011).
# Assays:
# [1] = system: male M. hirsutus; experiment: Field bioassay: sticky traps baited with rubber septa lures; assay type: in vivo, Maconellicoccus hirsutus; settings: (R)-lavandulol and (R)-maconelliol together, equal amount to ester, 1 and 10-μg doses, 1:5
# Experimental: Field Bioassays: Gray halo-butyl rubber septa (5 mm, West Pharmaceutical Services, Kearney, Nebr.) loaded with 1 μg of RS, SR, RR, and SS binary diastereoisomeric mixtures of two candidate pheromone compounds placed on white sticky cards (Pherocon V traps, Trécé, Salinas, Calif.) were used for the field trails in Florida. Treatments were arranged in a randomized complete block design with nine replicates and about ˜1 m between traps within replicates. The cards were attached to the top of metal rods and placed one foot above hibiscus plants in a hedgerow. Cards were collected, put separately in transparent plastic bags, and brought back to the laboratory to count the trapped male PHM under a microscope. Comparisons were made between candidate synthetic mixtures and a blank control trap.
# Field bioassays: Gray halo-butyl rubber septa (5 mm, West Pharmaceutical Services, Kearney, Nebr.) were soxhlet extracted with acetone for 48 hr and dried in a fume hood before use. The cleaned septa were loaded with the desired rates of candidate pheromone components in ˜40 μl of hexane solution, and used for field tests. The same amount of hexane was loaded on septa for the blank controls. […]
# [2] = system: male M. hirsutus antennae; settings: alcoholic moieties found in volatile extracts; Zhang et al. 2004; cited from earlier work
# [3] = system: male M. hirsutus antennae; experiment: Coupled GC-EAD of male antennae; parameters: species or system Maconellicoccus hirsutus; settings: GC-EAD of female airborne extracts
# Experimental: Analytical Methods: The coupled gas chromatographic-electroantennographic detection (GC-EAD) system used was as previously described (Zhang, A., et al., J. Chem. Ecol., 23: […] (1997); Zhang, A., et al., J. Chem. Ecol., 25: 1221-1232 (1999); Zhang, A., and S. Polavarapu, J. Chem. Ecol., 29: 2153-2164 (2003)). A HP 6890 GC equipped with a 60 m×0.25-mm ID, 0.25-μm film-thickness DB-WAXETR (J&W Scientific Inc., Folsom, Calif.) capillary column in the splitless mode with hydrogen (1.4 ml/min) as carrier was used for analysis. The column temperature program was hold at 80° C. for 2 min, then heated to 250° C. at 15° C./min and held for 15 min. Electron impact mass spectrometry (EI mass) was conducted on a HP 6890 GC coupled to a HP 5973 Mass Selective Detector using an a 60 m×0.25-mm ID, 0.25-μm film-thickness DB-WAXETR capillary column at 50° C. for 2 min, then programmed to 230° C. at 15° C./min and held for 15 min or a 30 m×0.25-mm ID, 0.25-μm film-thickness DB-1 capillary column (50° C. for 2 min, then programmed to 300° C. at 15° C./min and held for 15 min) with helium as carrier gas. […] GC-Fourier transform infrared (FTIR) spectra were recorded on a HP GC coupled to a Bio-Rad IRD II infrared detector using a 60 m DB-WAXETR capillary column with conditions as described as above. […] NMR spectra were recorded in C6D6 solution on a Bruker QE Plus spectrometer at 300 MHz for ^1H. […]
SMILES,effect on attraction to the RS isomers [1],antennal activity [2],EAD response of male M. hirsutus antennae [3]
"C=C(C)[C@H](CO)CC=C(C)C [(R)-lavandulol, (R)-(−)-lavandulol, reference compound]",significantly reduced attraction,did not elicited any antennal activity,
"CC(C)=C1C[C@@H](CO)C1(C)C [(R)-maconelliol, [(R)-(−)-2,2-Dimethyl-3-(1-methylethylidene)cyclobutyl]methanol]",significantly reduced attraction,did not elicited any antennal activity,
"C=C(C)[C@@H](CC=C(C)C)COC(=O)[C@@H](C)CC [compound 1, (R)-2-Isopropenyl-5-methylhex-4-enyl (S)-2-methylbutanoate]",,,consistently responded
"CC[C@H](C)C(=O)OC[C@@H]1CC(=C(C)C)C1(C)C [compound 2, [(R)-2,2-Dimethyl-3-(1-methylethylidene)cyclobutyl]methyl (S)-2-methylbutanoate]",,,consistently responded
